From article PMC7966678, “GMP-compliant fully automated radiosynthesis of [^18F]FEPPA for PET/MRI imaging of regional brain TSPO expression” (EJNMMI Research, 2021)

Legend:
[1] = molecular target: T1, TSPO (Mus musculus, UniProt P50637); assay: In vivo dynamic PET/MR whole-body biodistribution of [^18F]FEPPA in control and LPS-injected mice; parameters: species or system C57BL/6 mice
T1 construct: from tissue; host or cells: living C57BL6 mice: brain regions, heart, lung, liver, spleen, kidney, blood (in vivo PET/MR)
Experimental: (§1) The mice in the LPS group (6 mice for each dose) were intraperitoneally injected with a single dose of 0.625, 1.25, 2.5 or 5 mg/kg LPS (Escherichia coli, strain O111:B4; Calbiochem, San Diego, CA, USA) to induce systemic inflammation. The control group were intraperitoneally injected with 0.9% NaCl. In vivo or in vitro assessments were performed 24 h after administration of LPS.
Before PET/MR imaging acquisition, the mice were anesthetized by passive inhalation of a mixture of isoflurane and oxygen (5% isoflurane for induction and 2% for maintenance). A fiber-optic temperature probe was inserted into the rectum to monitor the core temperature of the mice, then each animal was gently positioned in the MR cradle and the MRI coil was secured around the head. A warm water blanket was positioned to maintain the core temperature of the animals, then the mice were positioned inside the scanner. The depth of anesthesia, pulse and respiration were monitored constantly during the imaging procedure; in the unlikely event that an animal regained consciousness, the scanning was immediately stopped and the animal was removed from the scanner, humanely euthanized and eliminated from the study.
(§2) The animals (n = 6 per dose of LPS; n = 6 controls) were injected with [^18F]FEPPA (10.09 ± 1.38 MBq; […]) via the tail vein. Dynamic PET images were obtained using a 7 T PETMR Inline (Bruker, Rheinstetten, Germany) for 30 min with the energy window set to 350–650 keV. Images were acquired every 1 s for 10 images, 10 s for five images, 60 s for nine images, 300 s for two images and 600 s for 1 image; a total of 27 frames were collected.
(§3) The PET images were reconstructed through three-dimensional ordered-subset expectation maximization (3D-OSEM). The regional radioactivity concentration (KBq/cc) of [^18F]FEPPA was estimated based on the mean pixel values within the volumes of interest (VOI) corresponding to MR images of various regions of the brain. Image data were decay-corrected to the injection time. The radioactivity concentration (KBq/cc) of the VOI was converted to the standard uptake value (SUV), and the mean and standard error of the mean (SEM) radiotracer accumulation values were calculated for various tissues. PET/MR data were analyzed using PMOD 4.0 software (PMOD Technologies Ltd., Zurich, Switzerland).

[2] = molecular target: T1, TSPO; assay: In vivo PET/MR brain region-specific uptake and pharmacokinetics (SUV, VT by Logan graphical analysis, AUC); parameters: species or system C57BL/6 mice; conditions: for Brain [^18F]FEPPA uptake vs LPS dose: 24 h after injection
Experimental: as §1, §2
T1 and T2 MRI were performed to determine the anatomical structure of the brain. The MRI sequences included 0.5-mm thickness coronal T2 Turbo RARE high-resolution images (TR = 3455 ms, TE = 36 ms, matrix = 256 × 256, average = 8, slice number = 30).
as §3
The Logan graphical method for reversible uptake was used to assess whether [^18F]FEPPA PET/MRI [30] could be used to detect differences in the expression of TSPO. Cardiac blood was used as the reference tissue. The slope of the linear portion of the Logan plot represents the total distribution (VT). If metabolite-corrected plasma TACs are not available, a reference region TAC, Cp(t), can be used instead of the plasma TAC. Then, the slope of the linear portion of the plot can be calculated using (Eq. 1)1 ∫0tCTissueτdr/CTissuet=K∫0tCpτdr/CTissuet+V

[3] = Stability of final product (radiochemical purity by analytical HPLC); assay type: physicochemical; conditions: 6 h after the end of synthesis; manual and automated synthesis
Experimental: Radiochemical and chemical purity, stability and molar activity were assessed by analytical HPLC. The molar activity of the radiotracer was quantified by measuring the radioactivity injected and deriving the concentration of FEPPA in the sample by UV detection.
The identity of the labeled compound [^18F]FEPPA was confirmed by co-injection with a non-radioactive FEPPA standard. The concentration of FEPPA in the radioactive sample was obtained from the UV-peak area ratio for the radioactive product and the standard solution. Analytical HPLC was performed on a Nova-pak C18 column (300 × 3.9 mm, 4 μm) in 50 mM (NH4)H2PO4:CH3CN (1:1) at 1 mL/min using a Waters Corporation 2695 pump with a multi-wavelength 2489 UV Detector (Waters Corporation) in series with a Bioscan FC-4000 dual BGO coincidence detector (Bioscan, Inc., Washington, DC, USA). A delay time of 12 s was observed between the two detectors.

[4] = test system: TSPO; parameters: method as in PMID 18355686, PMID 24939192; conditions: higher affinity than [^11C]PK-11195; cited from earlier work
[5] = parameters: method as in PMID 29875332; conditions: cited from earlier work

CC(=O)N(Cc1ccccc1OCC[18F])c1cnccc1Oc1ccccc1 [[^18F]FEPPA, [^18F]-N-(2-(2-fluoroethoxy)benzyl)-N-(4-phenoxypyridin-3-yl) acetamide]
Increase of [^18F]FEPPA in heart, LPS-induced group vs control ([1]; LPS 5 mg/kg, 24 h): ~ 3 folds
Increase of [^18F]FEPPA in lung, LPS-induced group vs control ([1]; LPS 5 mg/kg, 24 h): ~ 3 folds
Accumulated radioactivity (SUV), Blood ([1]; LPS (5 mg/kg i.p., 24 h) mice): 1.29 ± 0.128 SUV
Accumulated radioactivity (SUV), Heart muscle ([1]; LPS (5 mg/kg i.p., 24 h) mice): 3.60 ± 0.722 SUV
Accumulated radioactivity (SUV), Kidney ([1]; LPS (5 mg/kg i.p., 24 h) mice): 5.86 ± 0.504 SUV
Accumulated radioactivity (SUV), Liver ([1]; LPS (5 mg/kg i.p., 24 h) mice): 1.60 ± 0.097 SUV
Accumulated radioactivity (SUV), Spleen ([1]; LPS (5 mg/kg i.p., 24 h) mice): 0.96 ± 0.443 SUV
Accumulated radioactivity (SUV), Whole brain ([1]; LPS (5 mg/kg i.p., 24 h) mice): 0.76 ± 0.014 SUV
Time of peak radioactivity in heart muscle ([1]; after injection): ≤ 3 min
Time to steady state in heart muscle and lungs ([1]; after injection of [^18F]FEPPA): 10 min
Blood clearance kinetics ([1]; control group, after i.v. injection): biexponential
Accumulated radioactivity (SUV), Heart muscle ([1]; control mice): 1.24 ± 0.06 SUV
Accumulated radioactivity (SUV), Kidney ([1]; control mice): 4.80 ± 0.57 SUV
Accumulated radioactivity (SUV), Liver ([1]; control mice): 1.48 ± 0.36 SUV
Accumulated radioactivity (SUV), Lung ([1]; control mice): 1.38 ± 0.08 SUV
Accumulated radioactivity (SUV), Spleen ([1]; control mice): 1.16 ± 0.32 SUV
Accumulated radioactivity (SUV), Whole brain ([1]; control mice): 0.48 ± 0.05 SUV
Accumulated radioactivity (SUV), Blood ([1]; control mice, 30 min post-injection i.v.): 1.29 ± 0.03 SUV
Time of peak accumulation in the lungs ([1]; post-injection): 1 to 2 min
Brain [^18F]FEPPA uptake vs LPS dose ([2]; 5 mg/kg LPS): significantly higher uptake
AUC (SUV·min, 0–30 min) ratio in brain, LPS vs control ([2]; LPS 5 mg/kg, 24 h): 1.58 ± 0.09 fold
VT (Logan graphical analysis) in brain, LPS vs control ([2]; LPS 5 mg/kg, 24 h, average of brain regions, cardiac blood as reference): 1.25 ± 0.12 fold
Average SUV ratio for all brain regions, LPS vs control ([2]; LPS 5 mg/kg, 24 h, brain): 1.61 ± 0.1 fold
Brain [^18F]FEPPA uptake vs LPS dose ([2]; LPS dose ≦ 2.5 mg/kg): no significant difference
Time of peak radioactivity in brain regions ([2]; control animals, followed by rapid washout): ≤ 3 min
Radiochemical purity (stability of final product) [3]: more than 99%
Affinity relative to [^11C]PK-11195 [4]: 18 fold
Parent fraction of unmetabolized [^18F]FEPPA in the brain (intact form) ([5]; 30 min after injection): approximately 95%
Metabolite in plasma ([5]; 30 min imaging time-window): 60%
